Structures can show the parent of a compound that is named as a salt. Where two headings read alike, the source gives them in different places.
Legend:
[1] = test system: NCI-H292 lung cancer cells; experiment: FDA drug screening, complete media vs cholesterol-free media with simvastatin (TABLE 2); format: cell-based, human
[2] = test system: NCI-H292 lung cancer cells; experiment: FDA drug screening, complete media vs cholesterol-free media without statin (TABLE 1); format: cell-based, human
[3] = NCI-H292 cells, cholesterol-free media with simvastatin 0.04 μM, FDA drug library screen (TABLE 2)
[4] = NCI-H292 cells, complete media, FDA drug library screen (TABLE 2)
[5] = complete media minus cholesterol-free media + simvastatin (0.04 μM), >0 enhanced anti-cancer activity, about 0 neutral, <0 antagonist
[6] = Complete minus Cholesterol-free, greater than 0 enhanced anti-cancer activity, about 0 neutral, below 0 antagonist
[7] = NCI-H292 cells, FDA drug library screen, cholesterol-free media without statin
[8] = NCI-H292 cells, FDA drug library screen, complete media
[9] = NCI-H292 cells, FDA library drug in cholesterol-free media with simvastatin 0.04 μM
[10] = NCI-H292 cells, FDA library drug in complete media
[11] = complete media vs cholesterol-free media + simvastatin (0.04 μM), >0 enhanced anti-cancer activity, about 0 neutral, <0 antagonist
[12] = Complete minus Cholesterol-free, >0 enhanced anti-cancer activity, about 0 neutral, <0 antagonist
[13] = NCI-H292 cells, cholesterol-free media without statin
[14] = NCI-H292 cells, FDA drug library screen, cholesterol-free media with simvastatin 0.04 μM
[15] = complete media minus cholesterol-free media + simvastatin, >0 enhanced anti-cancer activity, about 0 neutral, <0 antagonist
[16] = NCI-H292 cells, cholesterol-free media without statin, FDA drug library screen
[17] = NCI-H292 cells, complete media, FDA drug library screen
[18] = complete vs cholesterol-free media, >0 enhanced anti-cancer activity, about 0 neutral, <0 antagonist
[19] = Complete minus Cholesterol-free, greater than 0 enhanced anti-cancer activity, about 0 neutral, below 0 antagonists
[20] = NCI-H292 cells in cholesterol-free media without statin
[21] = NCI-H292 cells in complete media
[22] = NCI-H292 cells, cholesterol-free media with simvastatin 0.04 μM, cell growth value in FDA drug screen
[23] = NCI-H292 cells, complete media, cell growth value in FDA drug screen
[24] = complete vs cholesterol-free media, […]
[25] = NCI-H292 cells, drug in cholesterol-free media with simvastatin 0.04 μM
[26] = NCI-H292 cells, drug in complete media

Compound: CCCC(=O)Nc1ncnc2c1ncn2[C@@H]1O[C@@H]2COP(=O)(O)O[C@H]2[C@H]1OC(=O)CCC [Bucladesine (calcium)]
- Cholesterol-free media + simvastatin (0.04 μM) [1, 3]: 0.8302
- Complete Media [1, 4]: 0.804
- Difference [1, 5]: −0.03
- Difference [2, 6]: −0.13
- Cholesterol-free [2, 7]: 0.8949
- Complete [2, 8]: 0.7629

Compound: Cc1cc2c(cc1S(N)(=O)=O)S(=O)(=O)CCC2 [Meticrane]
- Cholesterol-free media + simvastatin (0.04 μM) [1, 9]: 1.393
- Complete Media [1, 10]: 0.8316
- Difference [1, 11]: −0.56
- Difference [2, 12]: −0.25
- Cholesterol-free [2, 13]: 1.363
- Complete ([2]; NCI-H292 cells, complete media): 1.109

Compound: Flecainide (acetate)
- Cholesterol-free media + simvastatin (0.04 μM) [1, 14]: 1.399
- Complete Media [1, 8]: 2.119
- Difference [1, 15]: 0.72
- Cholesterol-free [2, 16]: 0.7015
- Complete [2, 17]: 1.125
- Difference [2, 18]: 0.42

Compound: O[C@H]1[C@H](O)[C@@H](O)[C@H](O)[C@@H](O)[C@H]1O [i-Inositol]
- Cholesterol-free media + simvastatin (0.04 μM) [1, 3]: 0.9949
- Complete Media [1, 4]: 0.9333
- Difference [1, 5]: −0.06
- Difference [2, 12]: −0.01
- Cholesterol-free [2, 16]: 1.553
- Complete [2, 17]: 1.54

Compound: CCCN1CC(c2ccc(S(C)(=O)=O)cc2)=C(c2ccc(C)cc2)C1=O [Imrecoxib]
- Cholesterol-free media + simvastatin (0.04 μM) [1, 3]: 1.183
- Complete Media [1, 4]: 1.141
- Difference [1, 5]: −0.04
- Difference [2, 19]: −0.54
- Cholesterol-free [2, 20]: 1.763
- Complete [2, 21]: 1.221

Compound: Tedizolid (phosphate)
- Cholesterol-free media + simvastatin (0.04 μM) [1, 22]: 0.7735
- Complete Media [1, 23]: 0.8096
- Difference [1, 15]: 0.04
- Difference [2, 12]: −0.01
- Cholesterol-free [2, 16]: 0.8406
- Complete [2, 17]: 0.8345

Compound: CC(C)(C)c1ccc(CN2CCN(C(c3ccccc3)c3ccc(Cl)cc3)CC2)cc1 (stereo not drawn) [Buclizine (dihydrochloride)]
- Cholesterol-free media + simvastatin (0.04 μM) [1, 22]: 0.9719
- Complete Media [1, 23]: 1.018
- Difference [1, 15]: 0.05
- Cholesterol-free [2, 16]: 0.6562
- Complete [2, 17]: 1.363
- Difference [2, 18]: 0.71

Compound: Cc1ccc([C@@H]2O[C@H](CO)[C@@H](O)[C@H](O)[C@H]2O)cc1Cc1ccc(-c2ccc(F)cc2)s1 [Canagliflozin]
- Cholesterol-free media + simvastatin (0.04 μM) [1, 3]: 1.109
- Complete Media [1, 4]: 1.104
- Difference ([1]; complete media minus cholesterol-free media + simvastatin (0.04 μM), […]): −0.01
- Cholesterol-free [2, 13]: 1.159
- Complete ([2]; NCI-H292 cells, complete media): 0.8206
- Difference [2, 24]: −0.34

Compound: Potassium guaiacolsulfonate (hemihydrate)
- Cholesterol-free media + simvastatin (0.04 μM) [1]: 1.702
- Complete Media [1]: 1.838
- Difference [1]: 0.14
- Cholesterol-free [2]: 1.74
- Complete [2]: 0.9478
- Difference [2]: −0.79

Compound: Estramustine (phosphate sodium)
- Cholesterol-free media + simvastatin (0.04 μM) [1]: 1.251
- Difference [1]: −0.18
- Cholesterol-free [2]: 1.196
- Complete [2]: 0.9487
- Difference [2]: −0.25

Compound: C[C@H]1C[C@@H]2[C@H]([C@@H](O)C[C@@]3(C)[C@H]2CC[C@]3(O)C(=O)COC(=O)CCC(=O)[O-])[C@@]2(C)C=CC(=O)C=C12.[Na+]
- Cholesterol-free media + simvastatin (0.04 μM) [1, 14]: 0.7536
- Complete Media [1, 8]: 0.682
- Difference [1, 11]: −0.07
- Difference [2, 12]: 0.02
- Cholesterol-free [2, 16]: 0.6071
- Complete [2, 17]: 0.6313

Compound: COc1cccc2c1cc([N+](=O)[O-])c1c(C(=O)O)cc3c(c12)OCO3 [Aristolochic acid A]
- Cholesterol-free media + simvastatin (0.04 μM) [1, 9]: 0.923
- Complete Media [1, 10]: 0.5762
- Difference ([1]; complete media vs cholesterol-free media + simvastatin (0.04 μM), […]): −0.35
- Difference ([2]; Complete minus Cholesterol-free, […]): −0.56
- Cholesterol-free [2, 20]: 1.282
- Complete [2, 21]: 0.7241

Compound: N[C@@H](CS)C(=O)O [L-Cysteine]
- Cholesterol-free media + simvastatin (0.04 μM) [1, 3]: 1.471
- Complete Media [1, 4]: 1.439
- Difference [1, 5]: −0.03
- Difference [2, 12]: −0.21
- Complete ([2]; NCI-H292 cells, complete media): 0.7323

Compound: C[C@H]1C[C@H]2[C@@H]3CCC4=CC(=O)C=C[C@]4(C)[C@@]3(F)[C@@H](O)C[C@]2(C)[C@@]1(O)C(=O)CO [Betamethasone]
- Cholesterol-free media + simvastatin (0.04 μM) [1, 14]: 1.093
- Complete Media [1, 8]: 0.9456
- Difference [1, 11]: −0.15
- Difference [2, 12]: −0.03
- Cholesterol-free [2, 16]: 0.6463
- Complete [2, 17]: 0.6113

Compound: O=C1CCc2cc(OCCCCc3nnnn3C3CCCCC3)ccc2N1 [Cilostazol]
- Cholesterol-free media + simvastatin (0.04 μM) [1, 14]: 0.8234
- Complete Media [1, 8]: 0.9809
- Difference [1, 15]: 0.16
- Cholesterol-free [2, 13]: 1.501
- Difference ([2]; complete vs cholesterol-free media, greater than 0 enhanced anti-cancer activity, about 0 neutral, below 0 antagonists): −0.33

Compound: C#C[C@]1(O)CC[C@H]2[C@@H]3CCC4=CC(=O)CCC4=C3C=C[C@@]21CC [Gestrinone]
- Cholesterol-free media + simvastatin (0.04 μM) [1, 14]: 1.007
- Complete Media [1, 8]: 1.693
- Difference ([1]; complete media minus cholesterol-free media + simvastatin, […]): 0.69
- Cholesterol-free [2, 16]: 0.8898
- Complete [2, 17]: 2.026
- Difference [2, 24]: 1.14

Compound: COC(=O)C1=C(C#N)NC(C)=C(C(=O)OC(C)C)C1c1cccc([N+](=O)[O-])c1 (stereo not drawn) [Nilvadipine]
- Cholesterol-free media + simvastatin (0.04 μM) [1, 25]: 1.579
- Complete Media [1, 26]: 1.393
- Difference [1, 11]: −0.19
- Difference [2, 12]: −0.27
- Cholesterol-free [2, 13]: 1.059
- Complete ([2]; NCI-H292 cells, complete media): 0.7875

Compound: Cc1ncc([N+](=O)[O-])n1CC(O)CCl (stereo not drawn) [Ornidazole (Levo-)]
- Cholesterol-free media + simvastatin (0.04 μM) [1, 22]: 0.9725
- Complete Media [1, 23]: 1.072
- Difference [1, 15]: 0.10
- Difference [2, 19]: −0.58
- Cholesterol-free [2, 20]: 1.634
- Complete [2, 21]: 1.058

Compound: Cc1c(-c2ccccc2)oc2c(C(=O)OCCN3CCCCC3)cccc2c1=O [Flavoxate (hydrochloride)]
- Cholesterol-free media + simvastatin (0.04 μM) [1, 3]: 0.9542
- Complete Media [1, 4]: 0.8849
- Difference [1, 5]: −0.07
- Difference [2, 12]: 0.01
- Cholesterol-free [2, 16]: 0.984
- Complete [2, 17]: 0.9957

Compound: CC/C=C\C/C=C\C/C=C\C/C=C\C/C=C\C/C=C\CCC(=O)O [Docosahexaenoic Acid]
- Cholesterol-free media + simvastatin (0.04 μM) [1, 25]: 1.034
- Complete Media [1, 26]: 0.8041
- Difference [1, 11]: −0.23
- Cholesterol-free [2, 16]: 1.175
- Complete [2, 17]: 1.764
- Difference [2, 18]: 0.59

Compound: CC(=O)OC(C)C[N+](C)(C)C.[Cl-] (stereo not drawn) [Methacholine (chloride)]
- Cholesterol-free media + simvastatin (0.04 μM) [1, 3]: 1.245
- Complete Media [1, 4]: 1.195
- Difference [1, 5]: −0.05
- Difference [2, 6]: −0.15
- Cholesterol-free [2, 7]: 1.05
- Complete [2, 8]: 0.8971

Compound: CC(C)(CO)c1cc2cc(NC(=O)C3(c4ccc5c(c4)OC(F)(F)O5)CC3)c(F)cc2n1C[C@@H](O)CO [Tezacaftor]
- Cholesterol-free media + simvastatin (0.04 μM) [1, 3]: 1.227
- Complete Media [1, 4]: 1.187
- Difference [1, 5]: −0.04
- Difference [2, 19]: −0.63
- Cholesterol-free [2, 20]: 1.488
- Complete [2, 21]: 0.8597

Compound: O=C(O)CCNC(=O)c1ccccc1 [Betamipron]
- Cholesterol-free media + simvastatin (0.04 μM) [1, 22]: 0.7936
- Complete Media [1, 23]: 0.9075
- Difference [1, 15]: 0.11
- Difference [2, 19]: −1.00
- Cholesterol-free [2, 20]: 1.952
- Complete [2, 21]: 0.9561

— patent publication US20250144067A1, “PERSONALIZED STARVATION THERAPY FOR CANCER” (Faeth Therapeutics, Inc., priority 2021, published 2025)
